From patent US20080161320A1, “FUSED BICYCLIC PYRIMIDINES AS PTK INHIBITORS CONTAINING A ZINC BINDING MOIETY” (priority 2006, published 2008)
One block for each compound: values may come before it.

Key:
HDAC = HDAC fluorimetric assay kit (AK-500, Biomol), HeLa nuclear extract; format: biochemical
Protocol: HDAC inhibitors were screened using an HDAC fluorimetric assay kit (AK-500, Biomol, Plymouth Meeting, Pa.). […] Each assay was setup as follows: Defrosted all kit components and kept on ice until use. […] Prepared dilutions of Trichostatin A (TSA, positive control) and tested compounds in assay buffer (5× of final concentration). Diluted Fluor de Lys™ Substrate in assay buffer to 100 uM (50 fold=2× final). Diluted Fluor de Lys™ developer concentrate 20-fold (e.g. 50 μl plus 950 μl Assay Buffer) in cold assay buffer. Second, diluted the 0.2 mM Trichostatin A 100-fold in the 1× Developer (e.g. 10 μl in 1 ml; final Trichostatin A concentration in the 1× Developer=2 μM; final concentration after addition to HDAC/Substrate reaction=1 μM). Added Assay buffer, diluted trichostatin A or test inhibitor to appropriate wells of the microtiter plate. Added diluted HeLa extract or other HDAC sample to all wells except for negative controls.

human EGFR = target: T1, human EGFR (Homo sapiens, UniProt P00533); assay: HTScan Receptor Kinase Assay, EGFR; format: biochemical
T1 construct: human EGFR (His672-Ala1210); GST (N); purchased Cell Signaling Technologies; host or cells: baculovirus expression system

human VEGFR2 = human VEGFR2 (Homo sapiens, UniProt P35968); assay: HTScan Receptor Kinase Assay, VEGFR2;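 note: recombinant GST-His-tagged human VEGFR2 kinase domain phosphorylating biotinylated gastrin precursor peptide, 30 min at room temperature, phosphotyrosine detected by Europium-labelled antibody time-resolved fluorescence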
human HER2/ErbB2 = human HER2/ErbB2 (Homo sapiens, UniProt P04626); assay: HTScan Receptor Kinase Assay, HER2/ErbB2;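 note: europium time-resolved fluorescence detection of anti-phosphotyrosine antibody binding to biotinylated FLT3 (Tyr589) peptide phosphorylated by the kinase, 30 min reaction at room temperature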
Sequence of human HER2/ErbB2 (P04626 676-1255): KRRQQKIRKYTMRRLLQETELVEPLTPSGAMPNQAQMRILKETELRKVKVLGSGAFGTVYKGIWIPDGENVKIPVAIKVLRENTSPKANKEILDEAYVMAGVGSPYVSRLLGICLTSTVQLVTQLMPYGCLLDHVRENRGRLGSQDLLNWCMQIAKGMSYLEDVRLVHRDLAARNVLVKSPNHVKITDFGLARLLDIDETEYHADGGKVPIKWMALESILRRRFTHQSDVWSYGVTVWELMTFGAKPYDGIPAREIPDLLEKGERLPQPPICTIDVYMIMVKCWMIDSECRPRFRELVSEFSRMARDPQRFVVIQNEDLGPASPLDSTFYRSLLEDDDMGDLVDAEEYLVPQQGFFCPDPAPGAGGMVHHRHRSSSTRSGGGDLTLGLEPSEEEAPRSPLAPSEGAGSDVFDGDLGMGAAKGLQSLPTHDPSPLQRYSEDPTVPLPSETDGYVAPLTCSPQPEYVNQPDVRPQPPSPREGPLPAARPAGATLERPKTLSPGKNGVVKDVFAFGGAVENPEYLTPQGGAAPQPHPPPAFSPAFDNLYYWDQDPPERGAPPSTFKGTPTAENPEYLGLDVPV

T1 sequence (P00533 672-1210): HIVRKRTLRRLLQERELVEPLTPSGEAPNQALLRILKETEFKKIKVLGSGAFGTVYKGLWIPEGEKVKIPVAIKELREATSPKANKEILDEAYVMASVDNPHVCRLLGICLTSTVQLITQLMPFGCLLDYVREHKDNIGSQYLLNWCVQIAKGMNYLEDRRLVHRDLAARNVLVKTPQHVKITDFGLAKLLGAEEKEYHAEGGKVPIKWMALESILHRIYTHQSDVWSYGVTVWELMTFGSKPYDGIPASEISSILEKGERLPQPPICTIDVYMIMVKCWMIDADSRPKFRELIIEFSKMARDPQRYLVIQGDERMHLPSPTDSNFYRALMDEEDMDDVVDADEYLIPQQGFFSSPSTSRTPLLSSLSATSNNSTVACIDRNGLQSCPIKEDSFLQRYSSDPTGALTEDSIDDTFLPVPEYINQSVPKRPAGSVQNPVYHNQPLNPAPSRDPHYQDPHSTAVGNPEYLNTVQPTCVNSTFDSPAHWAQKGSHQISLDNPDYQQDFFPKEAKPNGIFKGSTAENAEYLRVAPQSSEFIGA
Sequence of human VEGFR2 (P35968 807-1356 limits assumed): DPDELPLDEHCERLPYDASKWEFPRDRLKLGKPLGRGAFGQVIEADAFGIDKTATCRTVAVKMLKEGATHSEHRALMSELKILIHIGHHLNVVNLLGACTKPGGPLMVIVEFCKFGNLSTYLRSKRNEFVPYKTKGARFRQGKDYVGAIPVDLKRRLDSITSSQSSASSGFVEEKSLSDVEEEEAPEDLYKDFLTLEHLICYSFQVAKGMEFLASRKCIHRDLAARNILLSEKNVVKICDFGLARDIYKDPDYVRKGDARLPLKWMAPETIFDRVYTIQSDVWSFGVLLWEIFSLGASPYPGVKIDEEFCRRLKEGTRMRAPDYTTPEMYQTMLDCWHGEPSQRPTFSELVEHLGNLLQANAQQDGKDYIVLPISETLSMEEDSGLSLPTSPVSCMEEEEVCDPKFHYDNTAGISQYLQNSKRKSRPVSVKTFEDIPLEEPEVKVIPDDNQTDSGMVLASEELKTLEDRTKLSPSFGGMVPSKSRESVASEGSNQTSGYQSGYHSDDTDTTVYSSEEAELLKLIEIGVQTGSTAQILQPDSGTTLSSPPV

SMILES: C[C@@H](Nc1ncnc2[nH]c(-c3ccc(CN4CCN(CCCC(=O)NO)CC4)cc3)cc12)c1ccccc1 [Compound 13, (R)—N-Hydroxy-4-(4-(4-(4-(1-phenylethylamino)-7H-pyrrolo[2,3-d]pyrimidin-6-yl)benzyl)piperazin-1-yl)butanamide]
IC50 (HDAC): 1000 to 10000 nM | IC50 (human EGFR): < 100 nM | IC50 (human VEGFR2): 100 to 1000 nM | IC50 (human HER2/ErbB2): < 100 nM

SMILES: C[C@@H](Nc1ncnc2[nH]c(-c3ccc(CN4CCN(CC(=O)NO)CC4)cc3)cc12)c1ccccc1 [Compound 11, (R)—N-Hydroxy-2-(4-(4-(4-(1-phenylethylamino)-7H-pyrrolo[2,3-d]pyrimidin-6-yl)benzyl)piperazin-1-yl)acetamide]
IC50 (HDAC): > 10000 nM | IC50 (human EGFR): < 100 nM | IC50 (human VEGFR2): < 100 nM | IC50 (human HER2/ErbB2): < 100 nM

SMILES: C[C@@H](Nc1ncnc2[nH]c(-c3ccc(C(=O)NO)cc3)cc12)c1ccccc1 [Compound 39, (R)—N-hydroxy-4-(4-(1-phenylethylamino)-7H-pyrrolo[2,3-d]pyrimidin-6-yl)benzamide]
IC50 (HDAC): 100 to 1000 nM | IC50 (human EGFR): < 100 nM | IC50 (human VEGFR2): 100 to 1000 nM | IC50 (human HER2/ErbB2): < 100 nM

SMILES: C[C@@H](Nc1ncnc2[nH]c(-c3ccc(CN4CCN(CCC(=O)NO)CC4)cc3)cc12)c1ccccc1 [Compound 12, (R)—N-Hydroxy-3-(4-(4-(4-(1-phenylethylamino)-7H-pyrrolo[2,3-d]pyrimidin-6-yl)benzyl)piperazin-1-yl)propanamide]
IC50 (HDAC): > 10000 nM | IC50 (human EGFR): < 100 nM | IC50 (human VEGFR2): 100 to 1000 nM | IC50 (human HER2/ErbB2): < 100 nM

SMILES: C[C@@H](Nc1ncnc2[nH]c(-c3ccc(OCCCCC(=O)NO)cc3)cc12)c1ccccc1 [Compound 20, (R)—N-Hydroxy-5-(4-(4-(1-phenylethylamino)-7H-pyrrolo[2,3-d]pyrimidin-6-yl)phenoxy)pentanamide]
IC50 (HDAC): 100 to 1000 nM | IC50 (human EGFR): < 100 nM | IC50 (human VEGFR2): 100 to 1000 nM | IC50 (human HER2/ErbB2): 100 to 1000 nM

SMILES: C[C@@H](Nc1ncnc2[nH]c(-c3ccc(C(=O)NCCNCC(=O)NO)cc3)cc12)c1ccccc1 [Compound 28, (R)—N-(2-(2-(Hydroxyamino)-2-oxoethylamino)ethyl)-4-(4-(1-phenylethylamino)-7H-pyrrolo[2,3-d]pyrimidin-6-yl)benzamide]
IC50 (HDAC): > 10000 nM | IC50 (human EGFR): 100 to 1000 nM | IC50 (human VEGFR2): 100 to 1000 nM | IC50 (human HER2/ErbB2): 100 to 1000 nM

SMILES: C[C@@H](Nc1ncnc2[nH]c(-c3ccc(NC(=O)CCC(=O)NO)cc3)cc12)c1ccccc1 [Compound 24, (R) —N^1-Hydroxy-N^4-(4-(4-(1-phenylethylamino)-7H-pyrrolo[2,3-d]pyrimidin-6-yl)phenyl)succinamide]
IC50 (HDAC): > 10000 nM | IC50 (human EGFR): < 100 nM | IC50 (human VEGFR2): 100 to 1000 nM | IC50 (human HER2/ErbB2): 100 to 1000 nM

SMILES: C[C@@H](Nc1ncnc2[nH]c(-c3ccc(NCc4ccc(C(=O)NO)cc4)cc3)cc12)c1ccccc1 [Compound 43, (R)—N-Hydroxy-4-((4-(4-(1-phenylethylamino)-7H-pyrrolo[2,3-d]pyrimidin-6-yl)phenylamino)methyl)benzamide]
IC50 (HDAC): 100 to 1000 nM | IC50 (human EGFR): < 100 nM | IC50 (human VEGFR2): 1000 to 10000 nM | IC50 (human HER2/ErbB2): 100 to 1000 nM

SMILES: C[C@@H](Nc1ncnc2[nH]c(-c3ccc(CNCCCCCC(=O)NO)cc3)cc12)c1ccccc1 [Compound 32, (R)—N-hydroxy-6-(4-(4-(1-phenylethylamino)-7H-pyrrolo[2,3-d]pyrimidin-6-yl)benzylamino)hexanamide]
IC50 (HDAC): 100 to 1000 nM | IC50 (human EGFR): < 100 nM | IC50 (human VEGFR2): 100 to 1000 nM | IC50 (human HER2/ErbB2): 100 to 1000 nM

Further lines, results first:

IC50 (HDAC): < 100 nM | IC50 (human EGFR): < 100 nM | IC50 (human VEGFR2): 100 to 1000 nM | IC50 (human HER2/ErbB2): 100 to 1000 nM
SMILES: C[C@@H](Nc1ncnc2[nH]c(-c3ccc(C(=O)NCCNCCC(=O)NO)cc3)cc12)c1ccccc1 [Compound 29, (R)—N-(2-(3-(Hydroxyamino)-3-oxopropylamino)ethyl)-4-(4-(1-phenylethylamino)-7H-pyrrolo[2,3-d]pyrimidin-6-yl)benzamide]

IC50 (HDAC): < 100 nM | IC50 (human EGFR): < 100 nM | IC50 (human VEGFR2): 100 to 1000 nM | IC50 (human HER2/ErbB2): < 100 nM
SMILES: C[C@@H](Nc1ncnc2[nH]c(-c3ccc(NCCCCCCC(=O)NO)cc3)cc12)c1ccccc1 [Compound 67, (R)—N-hydroxy-7-(4-(4-(1-phenylethylamino)-7H-pyrrolo[2,3-d]pyrimidin-6-yl)phenylamino)heptanamide]

IC50 (HDAC): < 100 nM | IC50 (human EGFR): < 100 nM | IC50 (human VEGFR2): < 100 nM | IC50 (human HER2/ErbB2): 100 to 1000 nM
SMILES: C[C@@H](Nc1ncnc2[nH]c(-c3ccc(OCCCCCCC(=O)NO)cc3)cc12)c1ccccc1 [Compound 22, (R)—N-hydroxy-7-(4-(4-(1-phenylethylamino)-7H-pyrrolo[2,3-d]pyrimidin-6-yl)phenoxy)heptanamide]

IC50 (HDAC): < 100 nM | IC50 (human EGFR): < 100 nM | IC50 (human VEGFR2): 100 to 1000 nM | IC50 (human HER2/ErbB2): 100 to 1000 nM
SMILES: C[C@@H](Nc1ncnc2[nH]c(-c3ccc(CNCCCCCCC(=O)NO)cc3)cc12)c1ccccc1 [Compound 33, (R)—N-hydroxy-7-(4-(4-(1-phenylethylamino)-7H-pyrrolo[2,3-d]pyrimidin-6-yl)benzylamino)heptanamide]

IC50 (HDAC): 100 to 1000 nM | IC50 (human EGFR): < 100 nM | IC50 (human VEGFR2): < 100 nM | IC50 (human HER2/ErbB2): < 100 nM
SMILES: C[C@@H](Nc1ncnc2[nH]c(-c3ccc(OCCNCCCCCCC(=O)NO)cc3)cc12)c1ccccc1 [Compound 60, (R)—N-hydroxy-7-(2-(4-(4-(1-phenylethylamino)-7H-pyrrolo[2,3-d]pyrimidin-6-yl)phenoxy)ethylamino)heptanamide]

IC50 (HDAC): 100 to 1000 nM | IC50 (human EGFR): < 100 nM | IC50 (human VEGFR2): 100 to 1000 nM | IC50 (human HER2/ErbB2): 100 to 1000 nM
SMILES: C[C@@H](Nc1ncnc2[nH]c(-c3ccc(CNCc4ccc(C(=O)NO)cc4)cc3)cc12)c1ccccc1 [Compound 44, (R)—N-hydroxy-4-((4-(4-(1-phenylethylamino)-7H-pyrrolo[2,3-d]pyrimidin-6-yl)benzylamino)methyl)benzamide]

IC50 (HDAC): 100 to 1000 nM | IC50 (human EGFR): < 100 nM | IC50 (human VEGFR2): 100 to 1000 nM | IC50 (human HER2/ErbB2): 100 to 1000 nM
SMILES: C[C@@H](Nc1ncnc2[nH]c(-c3ccc(C(=O)NO)cc3)cc12)c1ccc(F)cc1 [Compound 41]

IC50 (HDAC): < 100 nM | IC50 (human EGFR): < 100 nM | IC50 (human VEGFR2): 100 to 1000 nM | IC50 (human HER2/ErbB2): 100 to 1000 nM
SMILES: C[C@@H](Nc1ncnc2[nH]c(-c3ccc(NC(=O)CCCCCCC(=O)NO)cc3)cc12)c1ccccc1 [Compound 27, (R)—N^1-Hydroxy-N^8-(4-(4-(1-phenylethylamino)-7H-pyrrolo[2,3-d]pyrimidin-6-yl)phenyl)octanediamide]

IC50 (HDAC): < 100 nM | IC50 (human EGFR): < 100 nM | IC50 (human VEGFR2): 100 to 1000 nM | IC50 (human HER2/ErbB2): 100 to 1000 nM
SMILES: C[C@@H](Nc1ncnc2[nH]c(-c3ccc(NC(=O)CCCCC(=O)NO)cc3)cc12)c1ccccc1 [Compound 26, (R) —N^1-Hydroxy-N^6-(4-(4-(1-phenylethylamino)-7H-pyrrolo[2,3-d]pyrimidin-6-yl)phenyl)adipamide]

IC50 (HDAC): < 100 nM | IC50 (human EGFR): 100 to 1000 nM | IC50 (human VEGFR2): 1000 to 10000 nM | IC50 (human HER2/ErbB2): 1000 to 10000 nM
SMILES: O=C(CCCCCCOc1ccc(-c2cc3c(NCc4ccccc4)ncnc3[nH]2)cc1)NO [Compound 38, 7-(4-(4-(benzylamino)-7H-pyrrolo[2,3-d]pyrimidin-6-yl)phenoxy)-N-hydroxyheptanamide]

IC50 (HDAC): < 100 nM | IC50 (human EGFR): < 100 nM | melting point: 116.8 to 126.8 °C | IC50 (human VEGFR2): 1000 to 10000 nM | IC50 (human HER2/ErbB2): < 100 nM
SMILES: C[C@@H](Nc1ncnc2[nH]c(-c3ccc(OCC(=O)NO)cc3)cc12)c1ccccc1 [Compound 17, (R)—N-hydroxy-2-(4-(4-(1-phenylethylamino)-7H-pyrrolo[2,3-d]pyrimidin-6-yl)phenoxy)acetamide]
